Assay results reported in US11419869B2, “Dosage forms and regimens for amino acid compounds” (Pliant Therapeutics, Inc., priority 2019, dated 2022).

Target: recombinant human integrin αvβ6 (Homo sapiens (Human), UniProt P06756+P18564)
Assay: Solid Phase Integrin αvβ6 Binding Assay (Examples B1, B2)
Settings: TGFβ1 LAP ligand, values given in four ranges, read-out: αvβ6 Inhibition IC50 (nM)-range
Method: (§1) Microplates were coated with recombinant human integrin αvβ6 (2 μg/mL) in PBS (100 μL/well 25° C., overnight). The coating solution was removed, washed with wash buffer (0.05% Tween 20; 0.5 mM MnCl2; in 1×TBS). The plate was blocked with 200 μL/well of Block Buffer (1% BSA; 5% sucrose; 0.5 mM MnCl2; in 1×TBS) at 37° C. for 2 h. Dilutions of testing compounds and recombinant TGFβ1 LAP (0.67 μg/mL) in binding buffer (0.05% BSA; 2.5% sucrose; 0.5 mM MnCl2; in 1×TBS) were added. The plate was incubated for 2 hours at 25° C., washed, and incubated for 1 hour with Biotin-Anti-hLAP. Bound antibody was detected by peroxidase-conjugated streptavidin. The IC50 values for testing compounds were calculated by four-parameter logistic regression.
The compounds tested were compound samples prepared according to procedures described in the Synthetic Examples section, with the stereochemical purity as indicated in the Examples.
as §1, with “A third series of exemplary compounds was selected for testing in the solid phase integrin αvβ6 binding assay. The compounds tested were compound samples prepared according to procedures described in the Synthetic Examples section, with the stereochemical purity as indicated in the Examples. As in Example B1, microplates were coated” for “Microplates were coated”, “calculated by a four-parameter logistic” for “calculated by four-parameter logistic”

recombinant human integrin αvβ6, sequence (P06756 31-992): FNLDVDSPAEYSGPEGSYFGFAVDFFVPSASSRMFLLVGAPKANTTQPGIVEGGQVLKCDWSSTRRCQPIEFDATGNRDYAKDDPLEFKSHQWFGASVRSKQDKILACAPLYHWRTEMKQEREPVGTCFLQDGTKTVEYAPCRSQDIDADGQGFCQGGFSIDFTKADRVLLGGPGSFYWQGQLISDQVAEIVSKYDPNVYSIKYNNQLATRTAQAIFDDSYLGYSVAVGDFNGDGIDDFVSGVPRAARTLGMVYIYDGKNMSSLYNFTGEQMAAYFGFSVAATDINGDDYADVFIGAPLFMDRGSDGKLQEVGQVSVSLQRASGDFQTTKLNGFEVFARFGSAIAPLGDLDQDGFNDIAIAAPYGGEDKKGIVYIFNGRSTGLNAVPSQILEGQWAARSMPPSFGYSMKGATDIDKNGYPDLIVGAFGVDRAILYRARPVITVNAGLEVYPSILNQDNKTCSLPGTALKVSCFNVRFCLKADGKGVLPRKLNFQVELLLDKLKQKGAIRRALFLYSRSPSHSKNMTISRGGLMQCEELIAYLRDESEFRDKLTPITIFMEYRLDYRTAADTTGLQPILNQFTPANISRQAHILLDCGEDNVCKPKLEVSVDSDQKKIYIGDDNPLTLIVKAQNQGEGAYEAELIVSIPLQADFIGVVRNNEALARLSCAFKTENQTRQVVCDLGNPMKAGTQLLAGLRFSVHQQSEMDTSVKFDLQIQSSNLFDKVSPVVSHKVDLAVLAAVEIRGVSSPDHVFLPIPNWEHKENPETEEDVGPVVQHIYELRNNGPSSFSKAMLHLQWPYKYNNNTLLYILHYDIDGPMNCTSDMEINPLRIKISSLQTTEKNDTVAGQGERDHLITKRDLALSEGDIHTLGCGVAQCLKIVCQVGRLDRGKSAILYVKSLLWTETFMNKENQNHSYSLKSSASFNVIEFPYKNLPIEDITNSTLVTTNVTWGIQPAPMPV
recombinant human integrin αvβ6, sequence (P18564 22-707): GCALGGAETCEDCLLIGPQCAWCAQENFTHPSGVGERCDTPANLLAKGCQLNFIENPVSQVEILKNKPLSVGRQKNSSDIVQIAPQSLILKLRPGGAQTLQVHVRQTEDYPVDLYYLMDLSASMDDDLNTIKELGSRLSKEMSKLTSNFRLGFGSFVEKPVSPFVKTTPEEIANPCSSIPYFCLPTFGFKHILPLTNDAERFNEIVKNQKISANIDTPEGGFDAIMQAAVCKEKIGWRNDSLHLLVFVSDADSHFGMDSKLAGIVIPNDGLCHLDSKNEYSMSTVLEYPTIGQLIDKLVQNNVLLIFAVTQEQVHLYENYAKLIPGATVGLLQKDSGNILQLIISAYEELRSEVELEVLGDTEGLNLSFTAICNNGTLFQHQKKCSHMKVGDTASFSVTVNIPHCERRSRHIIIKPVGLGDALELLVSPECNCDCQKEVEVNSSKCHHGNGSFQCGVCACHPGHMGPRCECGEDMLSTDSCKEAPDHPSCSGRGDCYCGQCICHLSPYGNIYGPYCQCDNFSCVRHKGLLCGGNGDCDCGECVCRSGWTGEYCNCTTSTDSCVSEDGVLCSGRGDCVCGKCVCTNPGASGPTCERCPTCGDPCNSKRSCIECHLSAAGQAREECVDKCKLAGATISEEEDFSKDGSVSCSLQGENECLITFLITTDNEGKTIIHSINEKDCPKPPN

SMILES	IC50
CCOCCN(CCCCc1ccc2c(n1)NCCC2)CC[C@H](Nc1ncnc2ccccc12)C(=O)O [Compound 55, (S)-4-((2-ethoxyethyl) (4-(5,6,7,8-tetrahydro-1,8-naphthyridin-2-yl)butyl)amino)-2-(quinazolin-4-ylamino) butanoic acid]	< 50 nM
Cc1ccc(OCCN(CCCCc2ccc3c(n2)NCCC3)CC[C@H](Nc2nc(C)nc3cc(F)ccc23)C(=O)O)cn1 [Compound 56, (S)-2-((7-fluoro-2-methylquinazolin-4-yl)amino)-4-((2-((6-methylpyridin-3-yl)oxy)ethyl) (4-(5,6,7,8-tetrahydro-1,8-naphthyridin-2-yl)butyl)amino) butanoic acid]	< 50 nM
Cc1ccc(OCCN(CCCCc2ccc3c(n2)NCCC3)CC[C@H](Nc2ncnc3cccnc23)C(=O)O)cn1 [Compound 57, (S)-4-((2-((6-methylpyridin-3-yl)oxy)ethyl) (4-(5,6,7,8-tetrahydro-1,8-naphthyridin-2-yl)butyl)amino)-2-(pyrido[3,2-d]pyrimidin-4-ylamino) butanoic acid]	< 50 nM
O=C(O)[C@H](CCN(CCCCc1ccc2c(n1)NCCC2)CCOc1cncc(F)c1)Nc1ncnc2ccccc12 [Compound 58, (S)-4-((2-((5-fluoropyridin-3-yl)oxy)ethyl) (4-(5,6,7,8-tetrahydro-1,8-naphthyridin-2-yl)butyl)amino)-2-(quinazolin-4-ylamino) butanoic acid]	< 50 nM
Cc1ccc(OCCN(CCCCc2ccc3c(n2)NCCC3)CC[C@H](Nc2ncnc3ccccc23)C(=O)O)cn1 [Compound 59, (S)-4-((2-((6-methylpyridin-3-yl)oxy)ethyl) (4-(5,6,7,8-tetrahydro-1,8-naphthyridin-2-yl)butyl)amino)-2-(quinazolin-4-ylamino) butanoic acid]	< 50 nM
O=C(O)[C@H](CCN(CCCCc1ccc2c(n1)NCCC2)CCOc1cncc(F)c1)Nc1ncnc2cccnc12 [Compound 60, (S)-4-((2-((5-fluoropyridin-3-yl)oxy)ethyl) (4-(5,6,7,8-tetrahydro-1,8-naphthyridin-2-yl)butyl)amino)-2-(pyrido[3,2-d]pyrimidin-4-ylamino) butanoic acid]	< 50 nM
Cc1nc(N[C@@H](CCN(CCCCc2ccc3c(n2)NCCC3)CCOc2cncc(F)c2)C(=O)O)c2ccc(F)cc2n1 [Compound 61, (S)-2-((7-fluoro-2-methylquinazolin-4-yl)amino)-4-((2-((5-fluoropyridin-3-yl)oxy)ethyl) (4-(5,6,7,8-tetrahydro-1,8-naphthyridin-2-yl)butyl)amino) butanoic acid]	< 50 nM
CO[C@H](C)CN(CCCCc1ccc2c(n1)NCCC2)CC[C@H](Nc1ncnc2ccccc12)C(=O)O [Compound 62, (S)-4-(((R)-2-methoxypropyl) (4-(5,6,7,8-tetrahydro-1,8-naphthyridin-2-yl)butyl)amino)-2-(quinazolin-4-ylamino) butanoic acid]	< 50 nM
CC(=O)NCCN(CCCCc1ccc2c(n1)NCCC2)CC[C@H](Nc1ncnc2ccccc12)C(=O)O [Compound 63, (S)-4-((2-acetamidoethyl) (4-(5,6,7,8-tetrahydro-1,8-naphthyridin-2-yl)butyl)amino)-2-(quinazolin-4-ylamino) butanoic acid]	< 50 nM
CN(C)C(=O)CN(CCCCc1ccc2c(n1)NCCC2)CC[C@H](Nc1ncnc2ccccc12)C(=O)O [Compound 64, (S)-4-((2-(dimethylamino)-2-oxoethyl) (4-(5,6,7,8-tetrahydro-1,8-naphthyridin-2-yl)butyl)amino)-2-(quinazolin-4-ylamino) butanoic acid]	< 50 nM
CO[C@H](C)CN(CCCCc1ccc2c(n1)NCCC2)CC[C@H](Nc1nc(C)nc2cc(F)ccc12)C(=O)O [Compound 65, (S)-2-((7-fluoro-2-methylquinazolin-4-yl)amino)-4-(((R)-2-methoxypropyl) (4-(5,6,7,8-tetrahydro-1,8-naphthyridin-2-yl)butyl)amino) butanoic acid]	< 50 nM
CO[C@H](C)CN(CCCCc1ccc2c(n1)NCCC2)CC[C@H](Nc1nc(C)nc2ccccc12)C(=O)O [Compound 66, (S)-4-(((R)-2-methoxypropyl) (4-(5,6,7,8-tetrahydro-1,8-naphthyridin-2-yl)butyl)amino)-2-((2-methylquinazolin-4-yl)amino) butanoic acid]	< 50 nM
COCCN(CCCCc1ccc2c(n1)NCCC2)CC[C@H](Nc1nccnc1C#N)C(=O)O [Compound 67, (S)-2-((3-cyanopyrazin-2-yl)amino)-4-((2-methoxyethyl) (4-(5,6,7,8-tetrahydro-1,8-naphthyridin-2-yl)butyl)amino) butanoic acid]	< 50 nM
CO[C@H](C)CN(CCCCc1ccc2c(n1)NCCC2)CC[C@H](Nc1ncc(C#N)cn1)C(=O)O [Compound 68, (S)-2-((5-cyanopyrimidin-2-yl)amino)-4-(((R)-2-methoxypropyl) (4-(5,6,7,8-tetrahydro-1,8-naphthyridin-2-yl)butyl)amino) butanoic acid]	< 50 nM
CO[C@H](C)CN(CCCCc1ccc2c(n1)NCCC2)CC[C@H](Nc1ncc(C(F)(F)F)cn1)C(=O)O [Compound 69, (S)-4-(((R)-2-methoxypropyl) (4-(5,6,7,8-tetrahydro-1,8-naphthyridin-2-yl)butyl)amino)-2-((5-(trifluoromethyl)pyrimidin-2-yl)amino) butanoic acid]	< 50 nM
CO[C@H](C)CN(CCCCc1ccc2c(n1)NCCC2)CC[C@H](Nc1ncc(Br)cn1)C(=O)O [Compound 70, (S)-2-((5-bromopyrimidin-2-yl)amino)-4-(((R)-2-methoxypropyl) (4-(5,6,7,8-tetrahydro-1,8-naphthyridin-2-yl)butyl)amino) butanoic acid]	< 50 nM
CO[C@H](C)CN(CCCCc1ccc2c(n1)NCCC2)CC[C@H](Nc1ncnc2[nH]ncc12)C(=O)O [Compound 71, (S)-2-((1H-pyrazolo[3,4-d]pyrimidin-4-yl)amino)-4-(((R)-2-methoxypropyl) (4-(5,6,7,8-tetrahydro-1,8-naphthyridin-2-yl)butyl)amino) butanoic acid]	< 50 nM
CO[C@H](C)CN(CCCCc1ccc2c(n1)NCCC2)CC[C@H](Nc1ccnc(C(F)(F)F)n1)C(=O)O [Compound 72, (S)-4-(((R)-2-methoxypropyl) (4-(5,6,7,8-tetrahydro-1,8-naphthyridin-2-yl)butyl)amino)-2-((2-(trifluoromethyl)pyrimidin-4-yl)amino) butanoic acid]	< 50 nM
CO[C@H](C)CN(CCCCc1ccc2c(n1)NCCC2)CC[C@H](Nc1ccnc(-c2ccccc2)n1)C(=O)O [Compound 73, (S)-4-(((R)-2-methoxypropyl) (4-(5,6,7,8-tetrahydro-1,8-naphthyridin-2-yl)butyl)amino)-2-((2-phenylpyrimidin-4-yl)amino) butanoic acid]	< 50 nM
CO[C@H](C)CN(CCCCc1ccc2c(n1)NCCC2)CC[C@H](Nc1ncnc2c1cnn2C)C(=O)O [Compound 74, (S)-4-(((R)-2-methoxypropyl) (4-(5,6,7,8-tetrahydro-1,8-naphthyridin-2-yl)butyl)amino)-2-((1-methyl-1H-pyrazolo[3,4-d]pyrimidin-4-yl)amino) butanoic acid]	< 50 nM
O=C(O)[C@H](CCN(CCO)CCCCc1ccc2c(n1)NCCC2)Nc1ncnc2ccccc12 [Compound 75, (S)-4-((2-hydroxyethyl) (4-(5,6,7,8-tetrahydro-1,8-naphthyridin-2-yl)butyl)amino)-2-(quinazolin-4-ylamino) butanoic acid]	< 50 nM
CO[C@H](C)CN(CCCCc1ccc2c(n1)NCCC2)CC[C@H](Nc1nccnc1C#N)C(=O)O [Compound 76, (S)-2-((3-cyanopyrazin-2-yl)amino)-4-(((R)-2-methoxypropyl) (4-(5,6,7,8-tetrahydro-1,8-naphthyridin-2-yl)butyl)amino) butanoic acid]	< 50 nM
CO[C@H](C)CN(CCCCc1ccc2c(n1)NCCC2)CC[C@H](Nc1cc(-n2cccn2)ncn1)C(=O)O [Compound 77, (S)-2-((6-(1H-pyrazol-1-yl)pyrimidin-4-yl)amino)-4-(((R)-2-methoxypropyl) (4-(5,6,7,8-tetrahydro-1,8-naphthyridin-2-yl)butyl)amino) butanoic acid]	< 50 nM
CO[C@H](C)CN(CCCCc1ccc2c(n1)NCCC2)CC[C@H](Nc1ncc(F)cn1)C(=O)O [Compound 78, (S)-2-((5-fluoropyrimidin-2-yl)amino)-4-(((R)-2-methoxypropyl) (4-(5,6,7,8-tetrahydro-1,8-naphthyridin-2-yl)butyl)amino) butanoic acid]	< 50 nM
